What all share (assay): NCI tumour cell line growth inhibition, 48 h
The subject of experiment [1] is UACC-62.
Experiment [2] relates to SNB-75.
The subject of experiment [3] is CCRF-CEM.
Experiment [4] relates to HCT-15.
Experiment [5] relates to SNB-19.
In experiment [6] the test system is HCT-116.
Experiment [7] deals with HT-29.
Experiment [8] concerns DU-145.
In experiment [9] the test system is BT-549.
The subject of experiment [10] is MDA-N.
In experiment [11] the test system is LOX IMVI.
Experiment [12] deals with SF-539.
In experiment [13] the test system is HCC 2998.
In experiment [14] the test system is 786-0.
For experiment [15], the system named is U-251.
Experiment [16] relates to CAKI-1.
Experiment [17] relates to SF-295.
For experiment [18], the system named is NCI-H460.
The subject of experiment [19] is UACC-257.
The test system of experiment [20] is SK-MEL-5.

SMILES strings stand for the structures. Structures can show the parent of a compound that is named as a salt.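 1) Cells in 96-well plates. 2) Compound, 48 h, 5 concentrations. 3) Linear interpolation between surrounding doses. 4) Unreached endpoint = highest concentration. Abbreviation: GI50, concentration required for 50% inhibition of growth.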 The source made the active and inactive calls. Rule as the data show it: active = GI50 up to about 1.1 µM and inactive = higher. A value given as a limit tells only on which side of the number the result lay.

Take `CC1=NN(C(=O)CC(=O)NC(=O)/C=C\c2ccccc2)C(=O)C1/N=N/c1ccc([N+](=O)[O-])cc1` (centres undefined): the GI50 is 24.3 µM (inactive) in experiment [1]; 52.4 µM (inactive) in experiment [2]; 42 µM (inactive) in [3]; more than 100 µM in experiment [4]; > 100 µM (inactive) in experiment [5]; 35.6 µM (inactive) in experiment [6]. Further, the GI50 in experiment [7] was > 100 µM (inactive); in [8] it was 55.7 µM (inactive); in [9], 19.1 µM (inactive); in [10], > 100 µM (inactive); in experiment [11], > 100 µM (inactive); in experiment [12] it was > 100 µM (inactive). The GI50 in experiment [13] was > 100 µM (inactive); in experiment [14], 83.8 µM (inactive); in experiment [15], 35.3 µM (inactive); in [16], 30.6 µM (inactive); in [17], 53.6 µM (inactive); in [18], > 100 µM (inactive).

For `CC(=O)OCc1cc(=O)n2c([nH]c3ccccc32)c1C#N`, the GI50 was 59.7 µM (inactive) in experiment [1]; 19.3 µM (inactive) in experiment [3]; 21.8 µM in [4]; 80.2 µM (inactive) in experiment [5]; > 100 µM (inactive) in experiment [19]; 51.3 µM (inactive) in [6]. In addition, the GI50 in experiment [7] is 79.4 µM (inactive); in experiment [8], 68.7 µM (inactive); in [9], > 100 µM (inactive); in experiment [20], 49.9 µM (inactive); in experiment [10] it was > 100 µM (inactive); in experiment [11], 68.7 µM (inactive). Further, the GI50 was > 100 µM (inactive) in experiment [12]; 42.6 µM (inactive) in experiment [13]; 40.6 µM (inactive) in [14]; 34 µM (inactive) in [15]; 28.2 µM (inactive) in experiment [16]; 58.3 µM (inactive) in experiment [17]. Besides, in experiment [18], the GI50 is 18.6 µM (inactive).

Consider `Cc1n[nH]c(=O)n1/N=C/c1cccs1`, for which the GI50 in [1] was > 100 µM (inactive); in experiment [2], > 100 µM (inactive); in experiment [3] it was > 100 µM (inactive); in experiment [4], more than 100 µM; in [5] it was > 100 µM (inactive); in experiment [19], > 100 µM (inactive). In addition, the GI50 in experiment [6], in [7], in experiment [8], in experiment [9], in experiment [10] and in experiment [11] was > 100 µM (inactive) in each case. Besides, the GI50 in experiment [12], in experiment [13], in [14], in experiment [15], in experiment [16] and in [17] was > 100 µM (inactive) in each case. Further, the GI50 in [18] is > 100 µM (inactive).

Consider `O=C1O[C@]2(c3ccccc3)C(c3ccccc3)=C[C@]2(C(=O)c2ccccc2)C1=O`, for which the GI50 was 29.8 µM (inactive) in experiment [1]; 3.92 µM (inactive) in [2]; 29.5 µM in experiment [4]; 36.6 µM (inactive) in [5]; 30.3 µM (inactive) in experiment [19]; 28.6 µM (inactive) in [6]. Further, the GI50 in experiment [7] was 55 µM (inactive); in experiment [8], 0.292 µM (active); in experiment [9], 36.1 µM (inactive); in [20] it was 31.8 µM (inactive); in experiment [10], 31.9 µM (inactive); in experiment [11], 28.9 µM (inactive). Besides, the GI50 in experiment [12] is 23 µM (inactive); in experiment [13], 20.3 µM (inactive); in experiment [14], 26.2 µM (inactive); in experiment [15] it was 31.6 µM (inactive); in experiment [16], 36.9 µM (inactive); in experiment [17] it was 47 µM (inactive). Besides, in experiment [18], the GI50 is 27.1 µM (inactive).

For the molecule `COC(=O)C1=C(C)NC2=C(C(=O)c3ccccc32)C1c1cn(-c2ccccc2)nc1-c1ccccc1` (centres undefined), the GI50 in [1] was > 42.6 µM (inactive); in experiment [2], 1.56 µM (inactive); in experiment [3] it was 23.4 µM (inactive); in [4] it was 30.1 µM; in [5], > 48.1 µM (inactive); in experiment [19], > 85.3 µM (inactive). Besides, the GI50 in [6] is 12.1 µM (inactive); in experiment [8] it was > 100 µM (inactive); in [9] it was 63.7 µM (inactive); in experiment [20] it was > 100 µM (inactive); in experiment [10], > 61.7 µM (inactive); in [11] it was 37.4 µM (inactive). Also, the GI50 is 21.2 µM (inactive) in [12]; 13.6 µM (inactive) in experiment [13]; > 87.1 µM (inactive) in [14]; 15.5 µM (inactive) in experiment [15]; > 100 µM (inactive) in [16]; 34.5 µM (inactive) in experiment [17].

In the case of `CCCCCCCCCCCCOP(=O)(O)OCC(N)C(=O)O` (centres undefined), the GI50 in experiment [2] is 18.5 µM (inactive); in experiment [4] it was 17 µM; in experiment [5], 16.3 µM (inactive); in [19], 37.2 µM (inactive); in [6], 12.1 µM (inactive); in [7], 43.3 µM (inactive). The GI50 was 83.4 µM (inactive) in experiment [8]; 21.2 µM (inactive) in experiment [9]; 23.4 µM (inactive) in [20]; 21.2 µM (inactive) in experiment [10]; 20.4 µM (inactive) in [11]; 22.3 µM (inactive) in experiment [12]. In addition, the GI50 in [13] was 29.8 µM (inactive); in [14] it was 30.2 µM (inactive); in experiment [15], 11.9 µM (inactive); in experiment [16], 30.1 µM (inactive); in experiment [17] it was 15.7 µM (inactive); in [18] it was 13.6 µM (inactive).

`CC(C)C[C@H](NC(=O)[C@H](Cc1ccccc1)NC(=O)c1cnccn1)B(O)O` [BORTEZOMIB]: the GI50 in experiment [1] is < 0.01 µM (active); in experiment [2], < 0.01 µM (active); in [4], less than 0.01 µM; in experiment [19] it was < 0.01 µM (active); in experiment [6] it was < 0.01 µM (active); in experiment [7] it was < 0.01 µM (active). Further, the GI50 was < 0.01 µM (active) in experiment [8]; < 0.01 µM (active) in [9]; < 0.01 µM (active) in experiment [10]; 0.01 µM (active) in experiment [11]; < 0.01 µM (active) in experiment [12]; < 0.01 µM (active) in experiment [13]. The GI50 in experiment [14], in [15], in experiment [16], in experiment [17] and in experiment [18] was < 0.01 µM (active) in each case.

With `C=C1C[C@@H]2CC[C@@]34C[C@H]5O[C@H]6[C@@H](O3)[C@H]3O[C@H](CC[C@@H]3O[C@H]6[C@H]5O4)CC(=O)C[C@@H]3[C@@H](OC)[C@@H](C[C@H](O)CN)O[C@H]3C[C@H]3O[C@@H](CC[C@@H]1O2)C[C@@H](C)C3=C` [ERIBULIN MESYLATE], the GI50 in experiment [1] is 0.000711 µM (active); in [4], 0.053 µM; in experiment [6], 0.00074 µM (active); in [7], 0.000352 µM (active); in [8] it was 0.00118 µM (active); in experiment [9], 0.00703 µM (active). Moreover, the GI50 in experiment [20] was 0.000877 µM (active); in experiment [10], 7.59e-05 µM (active); in experiment [11], 0.0014 µM (active); in experiment [12], 0.000465 µM (active); in experiment [13], 0.00201 µM (active); in experiment [14], 0.00328 µM (active). Further, the GI50 in [15] is 0.00134 µM (active); in experiment [16], 0.0179 µM (active); in [17] it was 0.0065 µM (active); in experiment [18] it was 0.00172 µM (active).

The values above are taken from ChEMBL document CHEMBL1201862, “PubChem BioAssay data set” (2004).
